Results taken from patent US10206394B2, “Herbicidal compounds” (Syngenta Participations AG, priority 2014, dated 2019).
Where two headings read alike, the source gives them in different places.

Key:
Test in all cases: Glasshouse assay for herbicidal activity (pre- and post-emergence), percentage phytotoxicity
Type in all cases: in vivo
[1] = test system: Lolium perenne (LOLPE); details: Lolium perenne
Procedure: (§1) Test—Glasshouse Assay for Herbicidal Activity
(§2) Seeds of a variety of monocotyledonous and dicotyledonous test plants are sown in standard soil in pots. The plants are cultivated for one day (for pre-emergence (PRE)) or for about 12 days (for post-emergence (POST)) under controlled conditions in a glasshouse (warm climate species at 24/18° C., cool climate species at 20/16° C., both at day/night; 16 hours light; 65% humidity).
(§3) The test plants are then grown on, in a glasshouse (greenhouse) under controlled conditions (warm climate species at 24/18° C., cool climate species at 20/16° C., both at day/night; 16 hours light; 65% humidity) and are watered twice daily. 15 days after application of the test herbicide (15 DAA) (for post-emergence), and 20 days after application of the test herbicide (20 DAA) (for pre-emergence), the test plants are evaluated visually, and an assessed percentage phytotoxicity score is given for each herbicidal application on each plant species (with 100%=total damage to plant; 0%=no damage to plant).
(§4) The plant species tested are as follows: Alopecurus myosuroides (ALOMY), Avena fatua (AVEFA), Lolium perenne (LOLPE), Echinochloa crus-galli (ECHCG).

[2] = test system: Echinochloa crus-galli (ECHCG); details: Echinochloa crus-galli
Procedure: as §1, §2, §3, §4

[3] = test system: Avena fatua (AVEFA); details: Avena fatua
Procedure: as §1, §2, §3, §4

[4] = test system: Alopecurus myosuroides (ALOMY); details: Alopecurus myosuroides
Procedure: as §1, §2, §3, §4

[5] = post-emergence, 360 h, 250 g/ha, post-emergence, 15 DAA, visual assessment (100%=total damage, 0%=no damage), read-out: Post-emergence herbicidal activity (percentage phytotoxicity) LOLPE POST
[6] = pre-emergence, 480 h, 250 g/ha, pre-emergence, 20 DAA, visual assessment (100%=total damage, 0%=no damage), read-out: Pre-emergence herbicidal activity (percentage phytotoxicity) LOLPE PRE
[7] = post-emergence, 360 h, 250 g/ha, post-emergence, 15 DAA, visual assessment (100%=total damage, 0%=no damage), read-out: Post-emergence herbicidal activity (percentage phytotoxicity) ECHCG POST
[8] = pre-emergence, 480 h, 250 g/ha, pre-emergence, 20 DAA, visual assessment (100%=total damage, 0%=no damage), read-out: Pre-emergence herbicidal activity (percentage phytotoxicity) ECHCG PRE
[9] = post-emergence, 360 h, 250 g/ha, post-emergence, 15 DAA, visual assessment (100%=total damage, 0%=no damage), read-out: Post-emergence herbicidal activity (percentage phytotoxicity) AVEFA POST
[10] = pre-emergence, 480 h, 250 g/ha, pre-emergence, 20 DAA, visual assessment (100%=total damage, 0%=no damage), read-out: Pre-emergence herbicidal activity (percentage phytotoxicity) AVEFA PRE
[11] = post-emergence, 360 h, 250 g/ha, post-emergence, 15 DAA, visual assessment (100%=total damage, 0%=no damage), read-out: Post-emergence herbicidal activity (percentage phytotoxicity) ALOMY POST
[12] = pre-emergence, 480 h, 250 g/ha, pre-emergence, 20 DAA, visual assessment (100%=total damage, 0%=no damage), read-out: Pre-emergence herbicidal activity (percentage phytotoxicity) ALOMY PRE
[13] = post-emergence, 360 h, Rate 250 g/ha, post-emergence, assessed visually 15 DAA, 100%=total damage, 0%=no damage, read-out: Post-emergence herbicidal activity (percentage phytotoxicity) LOLPE POST
[14] = pre-emergence, 480 h, Rate 250 g/ha, pre-emergence, assessed visually 20 DAA, 100%=total damage, 0%=no damage, read-out: Pre-emergence herbicidal activity (percentage phytotoxicity) LOLPE PRE
[15] = post-emergence, 360 h, Rate 250 g/ha, post-emergence, assessed visually 15 DAA, 100%=total damage, 0%=no damage, read-out: Post-emergence herbicidal activity (percentage phytotoxicity) ECHCG POST
[16] = pre-emergence, 480 h, Rate 250 g/ha, pre-emergence, assessed visually 20 DAA, 100%=total damage, 0%=no damage, read-out: Pre-emergence herbicidal activity (percentage phytotoxicity) ECHCG PRE
[17] = post-emergence, 360 h, Rate 250 g/ha, post-emergence, assessed visually 15 DAA, 100%=total damage, 0%=no damage, read-out: Post-emergence herbicidal activity (percentage phytotoxicity) AVEFA POST
[18] = pre-emergence, 480 h, Rate 250 g/ha, pre-emergence, assessed visually 20 DAA, 100%=total damage, 0%=no damage, read-out: Pre-emergence herbicidal activity (percentage phytotoxicity) AVEFA PRE
[19] = post-emergence, 360 h, Rate 250 g/ha, post-emergence, assessed visually 15 DAA, 100%=total damage, 0%=no damage, read-out: Post-emergence herbicidal activity (percentage phytotoxicity) ALOMY POST
[20] = pre-emergence, 480 h, Rate 250 g/ha, pre-emergence, assessed visually 20 DAA, 100%=total damage, 0%=no damage, read-out: Pre-emergence herbicidal activity (percentage phytotoxicity) ALOMY PRE
[21] = post-emergence, 360 h, Rate 250 g/ha, post-emergence, visual assessment 15 DAA, 100%=total damage, 0%=no damage, read-out: Post-emergence herbicidal activity (percentage phytotoxicity) LOLPE POST
[22] = pre-emergence, 480 h, Rate 250 g/ha, pre-emergence, visual assessment 20 DAA, 100%=total damage, 0%=no damage, read-out: Pre-emergence herbicidal activity (percentage phytotoxicity) LOLPE PRE
[23] = post-emergence, 360 h, Rate 250 g/ha, post-emergence, visual assessment 15 DAA, 100%=total damage, 0%=no damage, read-out: Post-emergence herbicidal activity (percentage phytotoxicity) ECHCG POST
[24] = pre-emergence, 480 h, Rate 250 g/ha, pre-emergence, visual assessment 20 DAA, 100%=total damage, 0%=no damage, read-out: Pre-emergence herbicidal activity (percentage phytotoxicity) ECHCG PRE
[25] = post-emergence, 360 h, Rate 250 g/ha, post-emergence, visual assessment 15 DAA, 100%=total damage, 0%=no damage, read-out: Post-emergence herbicidal activity (percentage phytotoxicity) AVEFA POST
[26] = pre-emergence, 480 h, Rate 250 g/ha, pre-emergence, visual assessment 20 DAA, 100%=total damage, 0%=no damage, read-out: Pre-emergence herbicidal activity (percentage phytotoxicity) AVEFA PRE
[27] = post-emergence, 360 h, Rate 250 g/ha, post-emergence, visual assessment 15 DAA, 100%=total damage, 0%=no damage, read-out: Post-emergence herbicidal activity (percentage phytotoxicity) ALOMY POST
[28] = pre-emergence, 480 h, Rate 250 g/ha, pre-emergence, visual assessment 20 DAA, 100%=total damage, 0%=no damage, read-out: Pre-emergence herbicidal activity (percentage phytotoxicity) ALOMY PRE

## Cc1cc(-c2ncc(Cl)cc2F)cc(C)c1C1C(=O)CC(CC(=O)NC(C)C)C1=O (stereo not shown) [Compound B118]
[1]; [5]
  pest or weed control at 250 g/ha: 100%
[1]; [6]
  pest or weed control at 250 g/ha: 100%
[2]; [7]
  pest or weed control at 250 g/ha: 100%
[2]; [8]
  pest or weed control at 250 g/ha: 100%
[3]; [9]
  pest or weed control at 250 g/ha: 100%
[3]; [10]
  pest or weed control at 250 g/ha: 90%
[4]; [11]
  pest or weed control at 250 g/ha: 100%
[4]; [12]
  pest or weed control at 250 g/ha: 100%

## Cc1cc(C)c(C2C(=O)CC(CC(=O)NC3CCOCC3)C2=O)c(C)c1 (stereo not shown) [Compound A17]
[1]; [13]
  pest or weed control at 250 g/ha: 80%
[1]; [14]
  pest or weed control at 250 g/ha: 70%
[2]; [15]
  pest or weed control at 250 g/ha: 80%
[2]; [16]
  pest or weed control at 250 g/ha: 70%
[3]; [17]
  pest or weed control at 250 g/ha: 70%
[3]; [18]
  pest or weed control at 250 g/ha: 40%
[4]; [19]
  pest or weed control at 250 g/ha: 80%
[4]; [20]
  pest or weed control at 250 g/ha: 70%

## C=CCNC(=O)CC1CC(=O)C(c2c(C)cc(-c3ccc(F)cn3)cc2C)C1=O (stereo not shown) [Compound B395]
[1]; [21]
  pest or weed control at 250 g/ha: 90%
[1]; [22]
  pest or weed control at 250 g/ha: 100%
[2]; [23]
  pest or weed control at 250 g/ha: 100%
[2]; [24]
  pest or weed control at 250 g/ha: 100%
[3]; [25]
  pest or weed control at 250 g/ha: 100%
[3]; [26]
  pest or weed control at 250 g/ha: 100%
[4]; [27]
  pest or weed control at 250 g/ha: 100%
[4]; [28]
  pest or weed control at 250 g/ha: 100%

## Cc1cc(-c2ncc(F)cn2)cc(C)c1C1C(=O)CC(CC(=O)NCC(C)(C)C)C1=O (stereo not shown) [Compound B109]
[1]; post-emergence, 360 h, post-emergence, 15 DAA, read-out: Post-emergence herbicidal activity (percentage phytotoxicity) LOLPE POST
  pest or weed control at 63 g/ha: 70%
[1]; pre-emergence, 480 h, pre-emergence, 20 DAA, read-out: Pre-emergence herbicidal activity (percentage phytotoxicity) LOLPE PRE
  pest or weed control at 63 g/ha: 60%
[2]; post-emergence, 360 h, post-emergence, 15 DAA, read-out: Post-emergence herbicidal activity (percentage phytotoxicity) ECHCG POST
  pest or weed control at 63 g/ha: 90%
[2]; pre-emergence, 480 h, pre-emergence, 20 DAA, read-out: Pre-emergence herbicidal activity (percentage phytotoxicity) ECHCG PRE
  pest or weed control at 63 g/ha: 80%
[3]; post-emergence, 360 h, post-emergence, 15 DAA, read-out: Post-emergence herbicidal activity (percentage phytotoxicity) AVEFA POST
  pest or weed control at 63 g/ha: 80%
[3]; pre-emergence, 480 h, pre-emergence, 20 DAA, read-out: Pre-emergence herbicidal activity (percentage phytotoxicity) AVEFA PRE
  pest or weed control at 63 g/ha: 100%
[4]; post-emergence, 360 h, post-emergence, 15 DAA, read-out: Post-emergence herbicidal activity (percentage phytotoxicity) ALOMY POST
  pest or weed control at 63 g/ha: 20%
[4]; pre-emergence, 480 h, pre-emergence, 20 DAA, read-out: Pre-emergence herbicidal activity (percentage phytotoxicity) ALOMY PRE
  pest or weed control at 63 g/ha: 70%

## CCCNC(=O)CC1CC(=O)C(c2c(C)cc(-c3ncc(Cl)cc3F)cc2C)C1=O (stereo not shown) [Compound B144]
[1]; [5]
  pest or weed control at 250 g/ha: 100%
[1]; [6]
  pest or weed control at 250 g/ha: 100%
[2]; [7]
  pest or weed control at 250 g/ha: 100%
[2]; [8]
  pest or weed control at 250 g/ha: 100%
[3]; [9]
  pest or weed control at 250 g/ha: 100%
[3]; [10]
  pest or weed control at 250 g/ha: 100%
[4]; [11]
  pest or weed control at 250 g/ha: 100%
[4]; [12]
  pest or weed control at 250 g/ha: 100%

## COCCNC(=O)CC1CC(=O)C(c2c(C)cc(-c3ncc(F)cn3)cc2C)C1=O (stereo not shown) [Compound A87]
[1]; [13]
  pest or weed control at 250 g/ha: 80%
[1]; [14]
  pest or weed control at 250 g/ha: 80%
[2]; [15]
  pest or weed control at 250 g/ha: 100%
[2]; [16]
  pest or weed control at 250 g/ha: 90%
[3]; [17]
  pest or weed control at 250 g/ha: 100%
[3]; [18]
  pest or weed control at 250 g/ha: 90%
[4]; [19]
  pest or weed control at 250 g/ha: 100%
[4]; [20]
  pest or weed control at 250 g/ha: 80%

## CCc1cc(OCC(F)(F)F)cc(C)c1C1C(=O)CC(CC(=O)NCc2ccc(C#N)cc2)C1=O (stereo not shown) [Compound B216]
[1]; post-emergence, 360 h, POST-emergence, rate 250 g/ha, visual score 15 DAA (100%=total damage, 0%=no damage), read-out: Post-emergence herbicidal activity (percentage phytotoxicity) LOLPE POST
  pest or weed control at 250 g/ha: 90%
[1]; pre-emergence, 480 h, PRE-emergence, rate 250 g/ha, visual score 20 DAA (100%=total damage, 0%=no damage), read-out: Pre-emergence herbicidal activity (percentage phytotoxicity) LOLPE PRE
  pest or weed control at 250 g/ha: 70%
[2]; post-emergence, 360 h, POST-emergence, rate 250 g/ha, visual score 15 DAA (100%=total damage, 0%=no damage), read-out: Post-emergence herbicidal activity (percentage phytotoxicity) ECHCG POST
  pest or weed control at 250 g/ha: 100%
[2]; pre-emergence, 480 h, PRE-emergence, rate 250 g/ha, visual score 20 DAA (100%=total damage, 0%=no damage), read-out: Pre-emergence herbicidal activity (percentage phytotoxicity) ECHCG PRE
  pest or weed control at 250 g/ha: 90%
[3]; post-emergence, 360 h, POST-emergence, rate 250 g/ha, visual score 15 DAA (100%=total damage, 0%=no damage), read-out: Post-emergence herbicidal activity (percentage phytotoxicity) AVEFA POST
  pest or weed control at 250 g/ha: 90%
[3]; pre-emergence, 480 h, PRE-emergence, rate 250 g/ha, visual score 20 DAA (100%=total damage, 0%=no damage), read-out: Pre-emergence herbicidal activity (percentage phytotoxicity) AVEFA PRE
  pest or weed control at 250 g/ha: 70%
[4]; post-emergence, 360 h, POST-emergence, rate 250 g/ha, visual score 15 DAA (100%=total damage, 0%=no damage), read-out: Post-emergence herbicidal activity (percentage phytotoxicity) ALOMY POST
  pest or weed control at 250 g/ha: 100%
[4]; pre-emergence, 480 h, PRE-emergence, rate 250 g/ha, visual score 20 DAA (100%=total damage, 0%=no damage), read-out: Pre-emergence herbicidal activity (percentage phytotoxicity) ALOMY PRE
  pest or weed control at 250 g/ha: 80%

## Cc1cc(-c2ncc(F)cn2)cc(Cl)c1C1C(=O)CC(CC(=O)NC(C)(C)C)C1=O (stereo not shown) [Compound B405]
[1]; [21]
  pest or weed control at 250 g/ha: 100%
[1]; [22]
  pest or weed control at 250 g/ha: 100%
[2]; [23]
  pest or weed control at 250 g/ha: 100%
[2]; [24]
  pest or weed control at 250 g/ha: 100%
[3]; [25]
  pest or weed control at 250 g/ha: 100%
[3]; [26]
  pest or weed control at 250 g/ha: 90%
[4]; [27]
  pest or weed control at 250 g/ha: 100%
[4]; [28]
  pest or weed control at 250 g/ha: 90%
